How the values were obtained:
[1] = system: LNCaP tumor-bearing NOD/SCID mice; assay: Biodistribution in LNCaP tumor model; conditions: for Blood uptake / Bone uptake / Brain uptake / Heart uptake / Kidney uptake / Liver uptake / Lung uptake / Muscle uptake / Salivary uptake / Small int (small intestine) uptake / Spleen uptake / Stomach uptake / Tumor uptake: mean ± SD (n=5)
[2] = design: method as in PMID 36696174; conditions: at 2 h; cited from earlier work
PSMA = biological target: T1, PSMA (Homo sapiens, UniProt Q04609); conditions: LNCaP cells, competition with [68Ga]Ga-PSMA-11; cited from earlier work
T1 construct: host or cells: LNCaP
T1 sequence (Q04609 whole entry): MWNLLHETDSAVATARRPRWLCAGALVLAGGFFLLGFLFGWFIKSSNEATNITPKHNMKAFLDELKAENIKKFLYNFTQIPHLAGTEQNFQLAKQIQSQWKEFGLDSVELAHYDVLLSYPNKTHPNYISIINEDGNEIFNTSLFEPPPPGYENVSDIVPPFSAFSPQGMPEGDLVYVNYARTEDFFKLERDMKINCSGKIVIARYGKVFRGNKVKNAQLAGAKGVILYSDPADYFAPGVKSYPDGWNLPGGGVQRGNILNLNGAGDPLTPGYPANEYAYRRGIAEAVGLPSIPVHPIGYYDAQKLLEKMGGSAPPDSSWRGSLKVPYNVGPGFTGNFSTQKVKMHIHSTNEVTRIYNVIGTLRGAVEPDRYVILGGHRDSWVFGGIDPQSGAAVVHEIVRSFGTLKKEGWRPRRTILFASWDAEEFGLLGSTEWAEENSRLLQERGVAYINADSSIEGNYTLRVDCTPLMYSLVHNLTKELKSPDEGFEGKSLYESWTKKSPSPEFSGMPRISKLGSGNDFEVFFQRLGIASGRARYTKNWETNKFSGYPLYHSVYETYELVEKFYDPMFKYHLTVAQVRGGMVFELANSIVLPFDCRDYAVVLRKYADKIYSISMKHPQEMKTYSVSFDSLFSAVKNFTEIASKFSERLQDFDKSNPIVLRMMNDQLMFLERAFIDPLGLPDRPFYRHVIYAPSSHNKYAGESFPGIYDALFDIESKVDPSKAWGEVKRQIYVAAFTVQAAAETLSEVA

LNCaP cells = assay: Uptake and internalization in LNCaP cells; assay type: cell-based, human; conditions: 120 min incubation, normalized to 10^6 cells
Procedure: LNCaP prostate cancer cell line obtained from the American Type Culture Collection (ATCC, Manassas, VA) was used for cell affinity studies. […] The supernatant was disposed, and the cell pellet was resuspended in a culture medium, and LNCaP cells (150,000 cells/well) were counted with a hemocytometer and seeded in poly-L-lysine-coated 24-well plates used in cell binding studies. The cells were then allowed to grow at 37 °C for 48 h. PC3-PIP cells provided by Professor Xiaoyuan Chen (Singapore) require additional Puromycin (2 µg/ml) in addition to the appealed culture conditions.

PC3-PIP tumors = assay: Micro-SPECT/CT imaging of 177Lu-labeled ligands in PC3-PIP tumor model; assay type: in vivo; conditions: balb/c-nu mice, scans 1-168 h
Procedure: To perform imaging studies, the male mice bearing LNCaP tumors were injected with the corresponding radioligand (~ 2.5 MBq; 100 μL) via their tail veins. The micro-PET/CT scans (Inveon PET, Siemens) were conducted at 10, 30, 60, and 120 min after injection. The mice were anesthetized and maintained under 2% isoflurane in oxygen at a flow rate of 2 L/min during the 2-h imaging study. First, a 10 min static PET imaging acquisition was carried out, followed by a 10 min CT scan for localization and attenuation correction. Data analysis was performed using Inveon Research Workplace software. For PC3-PIP tumor model, the imaging studies were performed with micro-PET/SPECT/CT (Inliview-3000B, Novel Medical). Data analysis was performed using Nmsoft-Al ws v1.7–1 software.
Balb/c-nu mice carrying PC3-PIP tumors were chosen for the micro-SPECT/CT imaging investigation of [^177Lu]Lu-PP4-WD and [^177Lu]Lu-PP8-WD (see Additional file 1: Figure S8).

Structure (SMILES): O=C([O-])CN1CCN(CC(=O)[O-])CCN(CC(=O)NCCCCCN(CCCC[C@H](NC(=O)N[C@@H](CCC(=O)O)C(=O)O)C(=O)O)C(=O)C2c3ccccc3-c3ccccc32)CCN(CC(=O)[O-])CC1.[68Ga+3] [[^68Ga]Ga-Flu-1]
- Tumor/Blood ratio ([1]; 30 min): 5.94±1.41
- Tumor/Heart ratio ([1]; 30 min): 17.48±3.23
- Tumor/Kidney ratio ([1]; 30 min): 0.14±0.12
- Tumor/Liver ratio ([1]; 30 min): 15.57±2.89
- Tumor/Salivary ratio ([1]; 30 min): 5.63±1.11
- Blood uptake ([1]; 30 min p.i.): 5.53±2.11 %ID/g
- Bone uptake ([1]; 30 min p.i.): 0.66±0.22 %ID/g
- Brain uptake ([1]; 30 min p.i.): 0.18±0.10 %ID/g
- Heart uptake ([1]; 30 min p.i.): 1.88±0.46 %ID/g
- Kidney uptake ([1]; 30 min p.i.): 240.00 ± 34.68 %ID/g
- Liver uptake ([1]; 30 min p.i.): 2.11±0.52 %ID/g
- Lung uptake ([1]; 30 min p.i.): 5.77±2.01 %ID/g
- Muscle uptake ([1]; 30 min p.i.): 0.93±0.34 %ID/g
- Salivary uptake ([1]; 30 min p.i.): 5.84±3.65 %ID/g
- Small int (small intestine) uptake ([1]; 30 min p.i.): 2.52±0.60 %ID/g
- Spleen uptake ([1]; 30 min p.i.): 9.45±5.92 %ID/g
- Stomach uptake ([1]; 30 min p.i.): 1.84±0.31 %ID/g
- Tumor uptake ([1]; 30 min p.i.): 32.86 ± 12.02 %ID/g
- Tumor/Blood ratio ([1]; 60 min): 11.1±1.97
- Tumor/Heart ratio ([1]; 60 min): 44.13±4.22
- Tumor/Kidney ratio ([1]; 60 min): 0.22±0.21
- Tumor/Liver ratio ([1]; 60 min): 33.17±3.09
- Tumor/Salivary ratio ([1]; 60 min): 17.24±3.54
- Blood uptake ([1]; 60 min p.i.): 4.69±2.33 %ID/g
- Bone uptake ([1]; 60 min p.i.): 0.29±0.18 %ID/g
- Brain uptake ([1]; 60 min p.i.): 0.11±0.10 %ID/g
- Heart uptake ([1]; 60 min p.i.): 1.18±0.36 %ID/g
- Kidney uptake ([1]; 60 min p.i.): 240.01±31.08 %ID/g
- Liver uptake ([1]; 60 min p.i.): 1.57±0.60 %ID/g
- Lung uptake ([1]; 60 min p.i.): 3.27±0.84 %ID/g
- Muscle uptake ([1]; 60 min p.i.): 0.44±0.25 %ID/g
- Salivary uptake ([1]; 60 min p.i.): 3.02±1.27 %ID/g
- Small int (small intestine) uptake ([1]; 60 min p.i.): 1.89±1.10 %ID/g
- Spleen uptake ([1]; 60 min p.i.): 7.25±3.39 %ID/g
- Stomach uptake ([1]; 60 min p.i.): 0.86±0.11 %ID/g
- Tumor uptake ([1]; 60 min p.i.): 52.07 ± 14.83 %ID/g
- Tumor/Blood ratio ([1]; 120 min): 13.07±2.56
- Tumor/Heart ratio ([1]; 120 min): 69.16±5.69
- Tumor/Kidney ratio ([1]; 120 min): 0.31±0.21
- Tumor/Liver ratio ([1]; 120 min): 37.14±3.65
- Tumor/Salivary ratio ([1]; 120 min): 27.47±4.33
- Blood uptake ([1]; 120 min p.i.): 3.07±2.7 %ID/g
- Bone uptake ([1]; 120 min p.i.): 0.34±0.21 %ID/g
- Brain uptake ([1]; 120 min p.i.): 0.06±0.04 %ID/g
- Heart uptake ([1]; 120 min p.i.): 0.58±0.28 %ID/g
- Kidney uptake ([1]; 120 min p.i.): 127.83 ± 27.94 %ID/g
- Liver uptake ([1]; 120 min p.i.): 1.08±0.71 %ID/g
- Lung uptake ([1]; 120 min p.i.): 1.23±0.47 %ID/g
- Muscle uptake ([1]; 120 min p.i.): 0.19±0.08 %ID/g
- Salivary uptake ([1]; 120 min p.i.): 1.46±1.05 %ID/g
- Small int (small intestine) uptake ([1]; 120 min p.i.): 0.46±0.25 %ID/g
- Spleen uptake ([1]; 120 min p.i.): 2.38±1.75 %ID/g
- Stomach uptake ([1]; 120 min p.i.): 0.42±0.17 %ID/g
- Tumor uptake ([1]; 120 min p.i.): 40.11 ± 9.24 %ID/g
- Kidney uptake, folds greater than that in the tumor [2]: 3 folds
- IC50 (PSMA): 9.62 ± 1.7 nM
- Internalization in LNCaP cells (LNCaP cells): 21.3 ± 0.13%
- Uptake in LNCaP cells (LNCaP cells): 34.57 ± 4.14%

Structure (SMILES): O=C([O-])CN1CCN(CC(=O)[O-])CCN(CC(=O)NCCOCCOCCOCCOCCOCCOCCOCCOCCNC(=O)CN(CCCC[C@H](NC(=O)N[C@@H](CCC(=O)O)C(=O)O)C(=O)O)C(=O)C2c3ccccc3-c3ccccc32)CCN(CC(=O)[O-])CC1.[177Lu+3] [[^177Lu]Lu-PP8-WD]
- Tumor-to-background ratio in micro-SPECT/CT (PC3-PIP tumors): favorable tumor-to-background ratio for up to 168 h
